molecular target: T1, human LPA1 (Homo sapiens, UniProt Q92633); assay: LPA1 functional antagonist assay (LPA-induced calcium flux); type: cell-based; details: CHO cells overexpressing human LPA1; inhibition of calcium flux induced by 10 nM LPA; read-out: hLPA1 IC50
T1 construct: expressed in transfected cells; host or cells: Chinese hamster ovary (CHO) cells
How it was run: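 CHO cells overexpressing human LPA1, loaded with calcium dye 30 min at 37° C, were preincubated 20 min at room temperature with compound (0.08 nM–5 μM, 0.5% DMSO) in HBSS/20 mM HEPES/0.1% fatty acid-free BSA.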

T1 sequence (Q92633 whole entry): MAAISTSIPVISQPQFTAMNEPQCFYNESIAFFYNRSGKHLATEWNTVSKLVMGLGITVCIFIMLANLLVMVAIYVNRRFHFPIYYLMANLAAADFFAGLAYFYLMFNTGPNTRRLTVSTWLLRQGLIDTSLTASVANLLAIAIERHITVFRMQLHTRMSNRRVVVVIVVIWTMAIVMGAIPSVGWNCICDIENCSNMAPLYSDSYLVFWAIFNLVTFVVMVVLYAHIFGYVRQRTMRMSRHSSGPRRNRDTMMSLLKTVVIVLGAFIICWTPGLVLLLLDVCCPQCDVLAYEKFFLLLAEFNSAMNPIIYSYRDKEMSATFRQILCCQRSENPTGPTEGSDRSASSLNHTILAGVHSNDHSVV

Row | Compound | IC50 [nM]
1 | CN(CC1CC1)C(=O)OCc1c(-c2ccc(O[C@H]3CCC[C@H](C(=O)O)C3)c(C(F)F)n2)nnn1C [Example 279, (1S,3S)-3-((6-(5-((((cyclopropylmethyl)(methyl)carbamoyl)oxy)methyl)-1-methyl-1H-1,2,3-triazol-4-yl)-2-(difluoromethyl)pyridin-3-yl)oxy)cyclohexane-1-carboxylic acid] | 21
2 | CN(C(=O)OCc1c(-c2ccc(O[C@H]3CCC[C@H](C(=O)O)C3)c(C(F)F)n2)nnn1C)C1CCC1 [Example 280, (1S,3S)-3-((6-(5-(((cyclobutyl(methyl)carbamoyl)oxy)methyl)-1-methyl-1H-1,2,3-triazol-4-yl)-2-(difluoromethyl)pyridin-3-yl)oxy)cyclohexane-1-carboxylic acid] | 22
3 | CN(C(=O)OCc1c(-c2ccc(O[C@H]3CCC[C@H](C(=O)O)C3)c(C(F)F)n2)nnn1C)C1CCCC1 [Example 281, (1S,3S)-3-((6-(5-(((cyclopentyl(methyl)carbamoyl)oxy)methyl)-1-methyl-1H-1,2,3-triazol-4-yl)-2-(difluoromethyl)pyridin-3-yl)oxy)cyclohexane-1-carboxylic acid] | 35
4 | CN(Cc1ccccc1)C(=O)OCc1c(-c2ccc(O[C@H]3CCC[C@H](C(=O)O)C3)c(C(F)F)n2)nnn1C [Example 282, (1S,3S)-3-((6-(5-(((benzyl(methyl)carbamoyl)oxy)methyl)-1-methyl-1H-1,2,3-triazol-4-yl)-2-(difluoromethyl)pyridin-3-yl)oxy)cyclohexane-1-carboxylic acid] | 19
5 | CCCN(C)C(=O)OCc1c(-c2ccc(O[C@H]3CCC[C@H](C(=O)O)C3)c(COC)n2)nnn1C [Example 283, (1S,3S)-3-((2-(methoxymethyl)-6-(1-methyl-5-(((methyl(propyl)carbamoyl)oxy)methyl)-1H-1,2,3-triazol-4-yl)pyridin-3-yl)oxy)cyclohexane-1-carboxylic acid] | 475
6 | CCCCN(C)C(=O)OCc1c(-c2ccc(O[C@H]3CCC[C@H](C(=O)O)C3)c(COC)n2)nnn1C [Example 284] | 48
7 | COCc1nc(-c2nnn(C)c2COC(=O)N(C)CC2CC2)ccc1O[C@H]1CCC[C@H](C(=O)O)C1 [Example 285, (1S,3S)-3-((6-(5-((((cyclopropylmethyl)(methyl)carbamoyl)oxy)methyl)-1-methyl-1H-1,2,3-triazol-4-yl)-2-(methoxymethyl)pyridin-3-yl)oxy)cyclohexane-1-carboxylic acid] | 1010
8 | COCc1nc(-c2nnn(C)c2COC(=O)N(C)C2CCC2)ccc1O[C@H]1CCC[C@H](C(=O)O)C1 [Example 286, (1S,3S)-3-((6-(5-(((cyclobutyl(methyl)carbamoyl)oxy)methyl)-1-methyl-1H-1,2,3-triazol-4-yl)-2-(methoxymethyl)pyridin-3-yl)oxy)cyclohexane-1-carboxylic acid] | 92
9 | COCc1nc(-c2nnn(C)c2COC(=O)N(C)C2CCCC2)ccc1O[C@H]1CCC[C@H](C(=O)O)C1 [Example 287, (1S,3S)-3-((6-(5-(((cyclopentyl(methyl)carbamoyl)oxy)methyl)-1-methyl-1H-1,2,3-triazol-4-yl)-2-(methoxymethyl)pyridin-3-yl)oxy)cyclohexane-1-carboxylic acid] | 118
10 | [2H]C([2H])([2H])N(CCC)C(=O)OCc1c(-c2ccc(O[C@H]3CCC[C@H](C(=O)O)C3)c(C)n2)nnn1C [Example 288, (1S,3S)-3-((2-methyl-6-(1-methyl-5-((((methyl-d3)(propyl)carbamoyl)oxy)methyl)-1H-1,2,3-triazol-4-yl)pyridin-3-yl)oxy)cyclohexane-1-carboxylic acid] | 29
11 | CN(CC1CC1)C(=O)OCc1c(-c2ccc(O[C@H]3CCC[C@H](C(=O)O)C3)c(C#N)n2)nnn1C [Example 289, (1S,3S)-3-((2-cyano-6-(5-((((cyclopropylmethyl)(methyl)carbamoyl)oxy)methyl)-1-methyl-1H-1,2,3-triazol-4-yl)pyridin-3-yl)oxy)cyclohexane-1-carboxylic acid] | 40

From US10576062B2, “Carbamoyloxymethyl triazole cyclohexyl acids as LPA antagonists” (Bristol-Myers Squibb Company, priority 2016, dated 2020)
